{"source": "patent US8936916B2", "about": "“Polypeptides for microbial detection” (3M Innovative Properties Company, priority 2008, dated 2015)", "key": {"[1]": {"conditions": "as the pH drops from 7; cited from earlier work"}, "[2]": {"assay": "Permeabilization of DPPC liposomes containing glucose oxidase (glucose oxidase/HRP colour reaction, scanned image)", "format": "biochemical", "conditions": "for Relative glucose oxidase activity (integrated digital values): DPPC; for Color apparent in the well: 30 minutes at room temperature", "experimental": "(§1) The formation of a pore allows glucose into the liposome where it reacts with glucose oxidase to generate hydrogen peroxide. The hydrogen peroxide reacts with HRP, 4-AAP and TOOS (all outside the liposome) to generate an intense purple color.\n(§2) The ability of the phosphorylated phylloxin to open liposomes in the presence of phosphatase was tested by preparing a developing solution of 0.5 mg/mL TOOS (3-(N-Ethyl-3-methylanilino)-2-hydroxypropanesulfonic acid sodium salt) (Sigma-Aldrich, St. Louis, Mo.), 1.0 mg/mL 4-AAP (4-amino-antipyrene) (Sigma-Aldrich), 12.5 mg/mL glucose and 0.0001 mg/mL HRP (horseradish peroxidase) (Pierce Biotechnology, Rockford, Ill.) in 50 mM TES.\n(§3) 200 μL of this solution was placed in one well of 96-well plate containing 10 μL (0.004 mg/mL) of a DPPC liposome suspension. A second well was prepared similarly and 10 μL (0.3 mg/mL) of phylloxin solution in TES was also added. A third well was prepared similar to the second well. Alkaline phosphatase (10 μL at 2.5 mg/mL in TES) was added to the third well to a final concentration of 0.11 mg/mL. A similar set of wells was prepared with DOPC/cholesterol liposomes at the same concentration.\n(§4) A weaker color was apparent in the well with DPPC liposomes, phylloxin and phosphatase, and weaker again in the well with DPPC liposomes and phylloxin. The remaining wells were essentially colorless. The image was recorded on an HP scanner and analyzed using an AlphaImager (Alpha Innotech, San Leandro, Calif.). The integrated digital values at 30 minutes are shown in Table 1 below, and at two hours in Table 2."}, "[3]": {"assay": "Permeabilization of DOPC/cholesterol liposomes containing glucose oxidase (glucose oxidase/HRP colour reaction, scanned image)", "format": "biochemical", "conditions": "for Relative glucose oxidase activity (integrated digital values): DOPC/Cholesterol", "experimental": "as §1, §2, §3, §4"}, "[4]": {"assay": "Permeabilization of DPPC liposomes containing glucose oxidase by phosphorylated dermatoxin (absorbance at 538 nm)", "format": "biochemical", "conditions": "Positive Control", "experimental": "DPPC liposomes containing 5 mg/mL glucose oxidase were prepared as described in Example 2. Glucose oxidase activity was measured in a coupled enzyme reaction with horseradish peroxidase as described in Example 2. The various solutions were quickly added to each of the wells of a microplate using a multichannel pipette and the reactions were started (at T=0 hours) with the addition to the wells of a solution containing glucose and 4-AAP.\nThe ability of the phosphorylated dermatoxin to open liposomes in the presence of phosphatase was tested by preparing a developing solution as described in Example 2. One hundred-fifty microliters of the developing solution was placed in each well of a 96-well microplate. To each column in the plate was added 20 μL of TES buffer containing one of the following concentrations of unpurified dermatoxin: 3.3 mg/mL, 3.3×10^−1 mg/mL, 3.3×10^−2 mg/mL, 3.3×10^−3 mg/mL, 3.3×10^−4 mg/mL, 3.3×10^−5 mg/mL, 3.3×10^−6 mg/mL, or 3.3×10^−7 mg/mL. Negative control wells contained TES buffer with no dermatoxin. Positive control wells buffer contained TES buffer with Triton X-100. Ten-microliter aliquots of the following concentrations of DPPC liposomes (containing 5 mg/mL glucose oxidase) were added to wells in duplicate rows: 0.1 mg lipid/mL, 0.02 mg lipid/mL, 0.004 mg lipid/mL, or plain buffer. To one of the duplicate rows was added 20 μL of 2.5 mg/mL alkaline phosphatase in TES. The other duplicate row received 20 μL of TES buffer. Thus the final dermatoxin concentration in the well varied from […], and the final lipid concentration in the well ranged from 0.005 mg lipid/mL to 2.0×10^−4 mg lipid/mL.\nThe absorbance was recorded at 538 nm on a SpectraMax M5 plate reader (Molecular Devices, Sunnyvale, Calif.) after two hours incubation at room temperature, and also after overnight incubation (approximately 18 hours). Since the absorbance of several wells was saturated, the overnight samples were diluted 1:10 with 50 mmol TES and the absorbance of the diluted samples was measured."}, "[5]": {"conditions": "2-hour incubation, liposome + peptide"}, "[6]": {"conditions": "2-hour incubation, liposome + peptide + phosphatase"}, "[7]": {"conditions": "30-minute incubation, liposome + peptide"}, "[8]": {"conditions": "30-minute incubation, liposome + peptide + phosphatase"}}, "note": "Ends that are not written are not given here.", "data": [{"substance": "GALA", "values": [{"measurement": "pH at which the cytolytic peptide becomes activated", "setting": "[1]", "result": "about 5.0"}]}, {"substance": "GWMSKIASGIGTFLSGMQQ (GWMSKIASGIGTFLSGMQQ-NH2; not fully specified (residues 4, 8, 12, 15, N-terminus); also: phosphorylated) [Tetraphosphorylated Phylloxin, fully phosphorylated phylloxin made by Fmoc synthesis on Rink amide resin, HPLC purified]", "values": [{"measurement": "Relative glucose oxidase activity (integrated digital values)", "setting": "[2]; [5]", "result": 173670}, {"measurement": "Relative glucose oxidase activity (integrated digital values)", "setting": "[2]; [6]", "result": 217620}, {"measurement": "Relative glucose oxidase activity (integrated digital values)", "setting": "[2]; [7]", "result": 84996}, {"measurement": "Relative glucose oxidase activity (integrated digital values)", "setting": "[2]; [8]", "result": 97588}, {"measurement": "Color apparent in the well", "setting": "[2]; DPPC liposomes and phylloxin, no phosphatase", "result": "weaker again"}, {"measurement": "Color apparent in the well", "setting": "[2]; DPPC liposomes, phylloxin and phosphatase", "result": "weaker color"}, {"measurement": "Phosphatase-dependent opening of liposomes", "setting": "[2]; DPPC liposomes, with versus without alkaline phosphatase", "result": "still an effect, but it is not so pronounced"}, {"measurement": "Relative glucose oxidase activity (integrated digital values)", "setting": "[3]; [5]", "result": 128550}, {"measurement": "Relative glucose oxidase activity (integrated digital values)", "setting": "[3]; [6]", "result": 299950}, {"measurement": "Relative glucose oxidase activity (integrated digital values)", "setting": "[3]; [7]", "result": 67680}, {"measurement": "Relative glucose oxidase activity (integrated digital values)", "setting": "[3]; [8]", "result": 184416}, {"measurement": "Color apparent in the well", "setting": "[3]; 30 minutes at room temperature, DOPC/cholesterol liposomes, phylloxin and phosphatase", "result": "dark purple color"}, {"measurement": "Opening of liposomes", "setting": "[3]; DOPC/cholesterol liposomes, in the absence of alkaline phosphatase", "result": "little effect"}, {"measurement": "Opening of liposomes", "setting": "[3]; DOPC/cholesterol liposomes, in the presence of alkaline phosphatase", "result": "rapidly opens liposomes"}]}, {"substance": "Triton X-100 [Positive Control, reference compound]", "values": [{"measurement": "Absorbance at 538 nm (cytolytic peptide activity)", "setting": "[4]; 2 hrs, lipid conc. 0, with phosphatase", "result": 2.272, "unit": "absorbance units"}, {"measurement": "Absorbance at 538 nm (cytolytic peptide activity)", "setting": "[4]; 2 hrs, lipid conc. 0, without phosphatase", "result": 0.123, "unit": "absorbance units"}, {"measurement": "Absorbance at 538 nm (cytolytic peptide activity)", "setting": "[4]; 2 hrs, lipid conc. 0.004, with phosphatase", "result": 0.132, "unit": "absorbance units"}, {"measurement": "Absorbance at 538 nm (cytolytic peptide activity)", "setting": "[4]; 2 hrs, lipid conc. 0.004, without phosphatase", "result": 0.210, "unit": "absorbance units"}, {"measurement": "Absorbance at 538 nm (cytolytic peptide activity)", "setting": "[4]; 2 hrs, lipid conc. 0.02, with phosphatase", "result": 0.296, "unit": "absorbance units"}, {"measurement": "Absorbance at 538 nm (cytolytic peptide activity)", "setting": "[4]; 2 hrs, lipid conc. 0.02, without phosphatase", "result": 0.602, "unit": "absorbance units"}, {"measurement": "Absorbance at 538 nm (cytolytic peptide activity)", "setting": "[4]; 2 hrs, lipid conc. 0.1, with phosphatase", "result": 0.557, "unit": "absorbance units"}, {"measurement": "Absorbance at 538 nm (cytolytic peptide activity)", "setting": "[4]; 2 hrs, lipid conc. 0.1, without phosphatase", "result": 2.220, "unit": "absorbance units"}, {"measurement": "Absorbance at 538 nm (cytolytic peptide activity)", "setting": "[4]; 18 hrs (d), 1:10-diluted sample, lipid conc. 0, with phosphatase", "result": 1.064, "unit": "absorbance units"}, {"measurement": "Absorbance at 538 nm (cytolytic peptide activity)", "setting": "[4]; 18 hrs (d), 1:10-diluted sample, lipid conc. 0, without phosphatase", "result": 0.055, "unit": "absorbance units"}, {"measurement": "Absorbance at 538 nm (cytolytic peptide activity)", "setting": "[4]; 18 hrs (d), 1:10-diluted sample, lipid conc. 0.004, with phosphatase", "result": 0.056, "unit": "absorbance units"}, {"measurement": "Absorbance at 538 nm (cytolytic peptide activity)", "setting": "[4]; 18 hrs (d), 1:10-diluted sample, lipid conc. 0.004, without phosphatase", "result": 0.097, "unit": "absorbance units"}, {"measurement": "Absorbance at 538 nm (cytolytic peptide activity)", "setting": "[4]; 18 hrs (d), 1:10-diluted sample, lipid conc. 0.02, with phosphatase", "result": 0.094, "unit": "absorbance units"}, {"measurement": "Absorbance at 538 nm (cytolytic peptide activity)", "setting": "[4]; 18 hrs (d), 1:10-diluted sample, lipid conc. 0.02, without phosphatase", "result": 0.274, "unit": "absorbance units"}, {"measurement": "Absorbance at 538 nm (cytolytic peptide activity)", "setting": "[4]; 18 hrs (d), 1:10-diluted sample, lipid conc. 0.1, with phosphatase", "result": 0.252, "unit": "absorbance units"}, {"measurement": "Absorbance at 538 nm (cytolytic peptide activity)", "setting": "[4]; 18 hrs (d), 1:10-diluted sample, lipid conc. 0.1, without phosphatase", "result": 1.018, "unit": "absorbance units"}, {"measurement": "Absorbance at 538 nm (cytolytic peptide activity)", "setting": "[4]; 18 hrs, lipid conc. 0, with phosphatase", "result": 4.000, "unit": "absorbance units"}, {"measurement": "Absorbance at 538 nm (cytolytic peptide activity)", "setting": "[4]; 18 hrs, lipid conc. 0, without phosphatase", "result": 0.158, "unit": "absorbance units"}, {"measurement": "Absorbance at 538 nm (cytolytic peptide activity)", "setting": "[4]; 18 hrs, lipid conc. 0.004, with phosphatase", "result": 0.158, "unit": "absorbance units"}, {"measurement": "Absorbance at 538 nm (cytolytic peptide activity)", "setting": "[4]; 18 hrs, lipid conc. 0.004, without phosphatase", "result": 0.524, "unit": "absorbance units"}, {"measurement": "Absorbance at 538 nm (cytolytic peptide activity)", "setting": "[4]; 18 hrs, lipid conc. 0.02, with phosphatase", "result": 0.524, "unit": "absorbance units"}, {"measurement": "Absorbance at 538 nm (cytolytic peptide activity)", "setting": "[4]; 18 hrs, lipid conc. 0.02, without phosphatase", "result": 2.043, "unit": "absorbance units"}, {"measurement": "Absorbance at 538 nm (cytolytic peptide activity)", "setting": "[4]; 18 hrs, lipid conc. 0.1, with phosphatase", "result": 2.043, "unit": "absorbance units"}]}]}
